Holding throughout (format): cell-based
Assay [1] relates to KRAS G12D mutant human pancreatic cancer cell HPAC. Put plainly: 3D cell proliferation inhibition assay, HPAC. Conditions: 168 h, 7 days, CTG. An outline of the steps:
(§1)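 Cells seeded at 5×10^2 per well in low-adsorption plates with compounds at 10000–0.026 nM final (0.2% DMSO) and grown 7 days at 37 °C, 5% CO2. Viability by CellTiter-Glo luminescence after 60 min at room temperature; inhibition normalized to DMSO and medium-only controls, IC50 from nonlinear log-concentration fit.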

Assay [2] concerns KRAS G12D mutant human metastatic pancreatic cancer cell AsPc-1. Nature of the assay: 3D cell proliferation inhibition assay, AsPc-1. The following applies: ASPC1, 168 h, AsPc-1, 7 days, CTG. The method in brief: as §1
Assay [3] relates to KRAS G12D mutant human pancreatic cancer cell Panc 04.03. Put plainly: 3D cell proliferation inhibition assay, Panc 04.03. Conditions: 168 h, Panc 04.03, 7 days, CTG. An outline of the steps:
as §1

For assay [4], the target named is T1, KRAS-G12D (Homo sapiens, UniProt P01116, G12D).
T1 construct: endogenous in cells; host or cells: A-427 (ATCC), AGS, AsPc-1, Panc 04.03
Put plainly: KRAS-G12D degradation assay (Western Blot), AsPc-1 cells. Conditions: for DC50: 24 h; for Dmax: ASPC1, 24 h. The method in brief: (§2)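 Each KRAS G12D mutant line (A-427, AGS, AsPc-1, Panc 04.03) was seeded at 5×10^5 cells/well and treated 24 h at 37 °C with 0.03–3000 nM compound (final DMSO 0.25%). KRAS in lysates was measured by Western blot, normalized to β-actin and compared with controls, giving DC50 and Dmax from curve fits.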
In general terms: Immunoblotting shows a protein as a band on a membrane.

Assay [5] addresses T1, KRAS-G12D. Put plainly: KRAS-G12D degradation assay (Western Blot), AGS cells. The following applies: 24 h. The method in brief:
as §2

Assay [6] addresses T1, KRAS-G12D. Put plainly: KRAS-G12D degradation assay (Western Blot), Panc 04.03 cells. Conditions: 24 h. An outline of the steps:
as §2

T1 sequence (P01116 1-188 isoform P01116-2 G12D): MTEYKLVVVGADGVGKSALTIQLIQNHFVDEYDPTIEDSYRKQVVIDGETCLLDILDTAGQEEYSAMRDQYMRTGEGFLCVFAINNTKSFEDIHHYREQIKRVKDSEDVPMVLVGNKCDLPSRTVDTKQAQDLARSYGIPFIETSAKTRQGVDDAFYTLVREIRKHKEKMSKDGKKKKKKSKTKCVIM

Broadly, the IC50 is the concentration that gives 50% inhibition. In assay [1], `C#Cc1c(F)ccc2cc(O)cc(-c3ncc4c(N5CC6CCC(C5)N6)nc(OCC5(CN6CCN(CC7CCC8(CC7)CCN(C(=O)c7ccc(C)c(N9CCC(=O)NC9=O)c7)CC8)CC6)CC5)nc4c3F)c12` [Example 36, 1-(5-(9-((4-((1-(((4-(3,8-diazabicyclo[3.2.1]octan-3-yl)-7-(8-ethynyl-7-fluoro-3-hydroxynaphthalen-1-yl)-8-fluoropyrido[4,3-d]pyrimidin-2-yl)oxy)methyl)cyclopropyl)methyl)piperazin-1-yl)methyl)-3-azaspiro[5.5]undecane-3-carbonyl)-2-methylphenyl)dihydropyrimidine-2,4(1H,3H)-dione] displayed an IC50 of 1.19 nM.
For orientation: DC50 means the concentration at which degradation of the target reaches its halfway point. In general, Dmax refers to the largest share of the target that was removed. High values mean deep degradation, low ones shallow degradation. As for `CCc1cccc2cc(O)cc(-c3ncc4c(N5CC6CCC(C5)N6)nc(OCC5(CN6CCN(CC7CCC8(CC7)CCN(C(=O)c7ccc(OC)c(N9CCC(=O)NC9=O)c7)CC8)CC6)CC5)nc4c3F)c12` [Example 20, 1-(5-(9-((4-((1-(((4-(3,8-diazabicyclo[3.2.1]octan-3-yl)-7-(8-ethyl-3-hydroxynaphthalen-1-yl)-8-fluoropyrido[4,3-d]pyrimidin-2-yl)oxy)methyl)cyclopropyl)methyl)piperazin-1-yl)methyl)-3-azaspiro[5.5]undecane-3-carbonyl)-2-methoxyphenyl)dihydropyrimidine-2,4(1H,3H)-dione], the IC50 in assay [2] (numeric values) worked out at 3.27 nM; in assay [3] (numeric values), 10.5 nM. For the same compound, the DC50 worked out at 0.57 nM at KRAS-G12D [4], 19.9 nM at KRAS-G12D [5] and 15.1 nM at KRAS-G12D [6]. The Dmax at KRAS-G12D [4], at KRAS-G12D [5] and at KRAS-G12D [6] was 100% in each case.
With `C#Cc1c(F)ccc2cc(O)cc(-c3ncc4c(N5CC6CCC(C5)N6)nc(OCC5(CN6CCN(CC7CCC8(CC7)CCN(C(=O)c7ccc(Cl)c(N9CCC(=O)NC9=O)c7)CC8)CC6)CC5)nc4c3F)c12` [Example 6, 1-(5-(9-((4-((1-(((4-(3,8-diazabicyclo[3.2.1]octan-3-yl)-7-(8-ethynyl-7-fluoro-3-hydroxynaphthalen-1-yl)-8-fluoropyrido[4,3-d]pyrimidin-2-yl)oxy)methyl)cyclopropyl)methyl)piperazin-1-yl)methyl)-3-azaspiro[5.5]undecane-3-carbonyl)-2-chlorophenyl)dihydropyrimidine-2,4(1H,3H)-dione], the DC50 on KRAS-G12D [4] turned out to be 2.9 nM; on KRAS-G12D [5], 7.91 nM; on KRAS-G12D [6] it was 21.7 nM. Also, the Dmax at KRAS-G12D [4] worked out at 100%; at KRAS-G12D [5], 100%; at KRAS-G12D [6], 99.9%. This compound showed an IC50 in assay [1] of 5.35 nM.
In the case of `C#Cc1c(F)ccc2cc(O)cc(-c3ccc4c(N5CC6CCC(C5)N6)nc(OCC5(CN6CCN(CC7CCC8(CC7)CCN(C(=O)c7ccc(C)c(N9CCC(=O)NC9=O)c7)CC8)CC6)CC5)nc4c3F)c12` [Example 42, 1-(5-(9-((4-((1-(((4-(3,8-diazabicyclo[3.2.1]octan-3-yl)-7-(8-ethynyl-7-fluoro-3-hydroxynaphthalen-1-yl)-8-fluoroquinazolin-2-yl)oxy)methyl)cyclopropyl)methyl)piperazin-1-yl)methyl)-3-azaspiro[5.5]undecane-3-carbonyl)-2-methylphenyl)dihydropyrimidine-2,4(1H,3H)-dione], the figures for the IC50 in assay [2] (numeric values), in assay [3] (numeric values) and in assay [1] were 1.75 nM, 8.41 nM and 2.96 nM, respectively. Besides, the results for the DC50 on KRAS-G12D [4], at KRAS-G12D [5] and at KRAS-G12D [6] were 0.22 nM, 11.8 nM and 7.46 nM, respectively. The Dmax was determined as 100% on KRAS-G12D [4], 77.4% at KRAS-G12D [5] and 100% at KRAS-G12D [6].
As for `CCc1c(F)ccc2cc(O)cc(-c3ncc4c(N5CC6CCC(C5)N6)nc(OCC5(CN6CCN(CC7CCC8(CC7)CCN(C(=O)c7ccc(OC)c(N9CCC(=O)NC9=O)c7)CC8)CC6)CC5)nc4c3F)c12` [Example 15, 1-(5-(9-((4-((1-(((4-(3,8-diazabicyclo[3.2.1]octan-3-yl)-7-(8-ethyl-7-fluoro-3-hydroxynaphthalen-1-yl)-8-fluoropyrido[4,3-d]pyrimidin-2-yl)oxy)methyl)cyclopropyl)methyl)piperazin-1-yl)methyl)-3-azaspiro[5.5]undecane-3-carbonyl)-2-methoxyphenyl)dihydropyrimidine-2,4(1H,3H)-dione], the IC50 in assay [2] (class symbols) was not above 50 nM; in assay [3] (class symbols), not above 50 nM; in assay [1], 4.06 nM. Moreover, the half-maximal degradation concentration (DC50) on KRAS-G12D [4] was 13 nM; on KRAS-G12D [5], 2.17 nM; on KRAS-G12D [6] it was 16.6 nM. The Dmax at KRAS-G12D [4] is 99.3%; on KRAS-G12D [5], 99.6%; at KRAS-G12D [6], 98.9%.
For `C#Cc1c(F)ccc2cc(O)cc(-c3ncc4c(N5CC6CCC(C5)N6)nc(OCC(C)CN5CCN(CC6CCC7(CC6)CCN(C(=O)c6ccc(OC)c(N8CCC(=O)NC8=O)c6)CC7)CC5)nc4c3F)c12` (stereo not drawn) [Example 84, 1-(5-(9-((4-(3-((4-(3,8-diazabicyclo[3.2.1]octan-3-yl)-7-(8-ethynyl-7-fluoro-3-hydroxynaphthalen-1-yl)-8-fluoropyrido[4,3-d]pyrimidin-2-yl)oxy)-2-methylpropyl)piperazin-1-yl)methyl)-3-azaspiro[5.5]undecane-3-carbonyl)-2-methoxyphenyl)dihydropyrimidine-2,4(1H,3H)-dione], the figures for the IC50 in assay [2] (numeric values), in assay [3] (numeric values) and in assay [1] were 2.58 nM, 17 nM and 1.3 nM, respectively. Further, the DC50 at KRAS-G12D [4] worked out at 0.71 nM; on KRAS-G12D [5], 3.82 nM; at KRAS-G12D [6] it was 1.99 nM. The Dmax worked out at 99.6% at KRAS-G12D [4], 92.2% at KRAS-G12D [5] and 98.6% at KRAS-G12D [6].
With `C#Cc1cccc2cc(O)cc(-c3ncc4c(N5CC6CCC(C5)N6)nc(OCC5(CN6CCN(CC7CCC8(CC7)CCN(C(=O)c7ccc(Cl)c(N9CCC(=O)NC9=O)c7)CC8)CC6)CC5)nc4c3F)c12` [Example 57, 1-(5-(9-((4-((1-(((4-(3,8-diazabicyclo[3.2.1]octan-3-yl)-7-(8-ethynyl-3-hydroxynaphthalen-1-yl)-8-fluoropyrido[4,3-d]pyrimidin-2-yl)oxy)methyl)cyclopropyl)methyl)piperazin-1-yl)methyl)-3-azaspiro [5.5]undecane-3-carbonyl)-2-chlorophenyl)dihydropyrimidine-2,4(1H,3H)-dione], the IC50 in assay [2] (class symbols) is not above 50 nM; in assay [3] (class symbols), not above 50 nM; in assay [1], 9.88 nM. Moreover, the DC50 on KRAS-G12D [4] stood at 15 nM; at KRAS-G12D [5] it was 0.69 nM; at KRAS-G12D [6], 8.95 nM. Moreover, the Dmax at KRAS-G12D [4] is 99.5%; at KRAS-G12D [5] it was 94.2%; at KRAS-G12D [6], 97.3%.
On to `C#Cc1c(F)ccc2cc(O)cc(-c3ncc4c(N5CC6CCC(C5)N6)nc(OCC5(CN6CCN(CCCCC7CCC8(CC7)CCN(C(=O)c7ccc(Cl)c(N9CCC(=O)NC9=O)c7)CC8)CC6)CC5)nc4c3F)c12` [Example 31, 1-(5-(9-(4-(4-((1-(((4-(3,8-diazabicyclo[3.2.1]octan-3-yl)-7-(8-ethynyl-7-fluoro-3-hydroxynaphthalen-1-yl)-8-fluoropyrido[4,3-d]pyrimidin-2-yl)oxy)methyl)cyclopropyl)methyl)piperazin-1-yl)butyl)-3-azaspiro[5.5]undecane-3-carbonyl)-2-chlorophenyl)dihydropyrimidine-2,4(1H,3H)-dione], for which the IC50 in assay [2] (numeric values) was determined as 5.62 nM; in assay [3] (numeric values), 22.2 nM.

For the origin of these results see US20260166159A1, “KRAS G12D DEGRADATION AGENT, AND PREPARATION METHOD AND USE THEREFOR” (LEADINGTAC PHARMACEUTICAL (SHAOXING) CO., LTD., priority 2022, published 2026).
